This is an account of results in paper PMC10226132, “First-in-Class Selective Inhibitors of the Lysine Acetyltransferase KAT8” (Journal of Medicinal Chemistry, 2023).

The target of one test is T1, KAT8 (Homo sapiens, UniProt Q9H7Z6).
T1 construct: using the previously purified KAT8 (173–458, 5 nM); 6xHis tag with TEV protease cleavage site (N, cleaved yes); made in house; host or cells: E. coli BL21(DE3)
T1 sequence (Q9H7Z6 173-458): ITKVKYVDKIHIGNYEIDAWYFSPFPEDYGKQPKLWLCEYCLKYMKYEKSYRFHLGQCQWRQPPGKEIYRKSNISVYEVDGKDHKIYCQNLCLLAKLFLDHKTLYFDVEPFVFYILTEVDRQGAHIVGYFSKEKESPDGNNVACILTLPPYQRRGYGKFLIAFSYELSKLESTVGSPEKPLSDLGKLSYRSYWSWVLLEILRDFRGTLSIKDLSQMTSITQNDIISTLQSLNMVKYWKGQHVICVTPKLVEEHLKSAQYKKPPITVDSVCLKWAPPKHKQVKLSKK
The test can be described thus: Radioactive KAT8 inhibition assay. Format: biochemical. The settings on record: read-out: IC50 KAT8 (5 nM); enzyme 5 nM; 2-fold serial dilution from 200 μM; NI = no inhibition at 200 μM; mean ± SD of three independent experiments. The method, boiled down:
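Purified KAT8 preincubated 20 min at rt with inhibitor (2-fold dilutions from 200 μM, 1% DMSO), then [3H]Ac-CoA and biotinylated peptide added for 4 h at rt. Product captured on streptavidin scintillant plates and counted. IC50 by nonlinear regression of % inhibition, biological triplicates.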

Another test deals with T2, KAT2B (Homo sapiens, UniProt Q92831).
T2 construct: KAT2B (aa 492–658, 25 nM); purchased Reaction Biology Corporation
The test can be described thus: HotSpot KAT assay, KAT2B. The settings on record: enzyme 25 nM; NI = no inhibition at 200 μM; mean ± SD of three independent experiments. Format: biochemical. Summed up:
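Radiometric assay: recombinant human catalytic domains (KAT2B aa 492–658, 25 nM; KAT6A aa 488–778, 10 nM; KAT6B aa 657–1069, 10 nM) or full-length KAT7 (25 nM), with H3 peptide (H4 for KAT6B, 2.5 μM) and [3H]acetyl-CoA, pH 8.0, 1 h, 30 °C. Compounds 2-fold from 200 μM; scintillation counting, triplicates, IC50 by nonlinear regression.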

The target of another test is T3, KAT6A (Homo sapiens, UniProt Q92794).
T3 construct: KAT6A (aa 488–778, 10 nM); purchased Reaction Biology Corporation
Briefly: HotSpot KAT assay, KAT6A. The test is classed as biochemical. The settings on record: for inhibition at 200 µM: read-out: % inhibition at 200 μM KAT6A (10 nM), NI = no inhibition. The method, then:
(§1) The effects of the compounds on other KATs were determined using the HotSpot KAT assay (Reaction Biology Corporation, Malvern, PA, USA) according to the supplier’s procedure. The recombinant catalytic domains of human KAT2A (aa 323–837, 15 nM), KAT2B (aa 492–658, 25 nM), KAT3B (aa 1284–1672, 1 nM), KAT6A (aa 488–778, 10 nM), KAT6B (aa 657–1069, 10 nM), and full length human KAT5 (25 nM) and KAT7 (25 nM) were used. Each enzyme was incubated with the relevant histone peptide [H3 peptide for KAT2A, KAT2B, KAT3B, KAT6A, and KAT7 (2.5–5 μM, depending on the KAT isoform); H2A peptide for KAT5 (1.25 μM); H4 peptide for KAT6B (2.5 μM)] as a substrate and radio-isotope-labeled [^3H]Acetyl-CoA (0.2–1.5 μM, depending on the KAT isoform) as an acetyl donor in the assay buffer [50 mM Tris–HCl (pH 8.0), 50 mM NaCl, 0.1 mM EDTA, 1 mM DTT, 0.1 mM PMSF, 1% DMSO] for 1 h at 30 °C in the presence or absence of various compounds (1% DMSO final) titrated in a 2-fold serial dilution starting at 200 μM. Histone peptide acetylation was assessed by liquid scintillation counting using a Tri-Carb 2800TR Liquid Scintillation Analyzer (Perkin Elmer). Experiments were performed in biological triplicates. Signal reduction compared to control was plotted (as inhibition percentage) as a function of compound concentration. In cases in which an IC50 was calculated, the values were fitted by nonlinear regression (GraphPad Prism 8.0).

The target of the next test is T4, KAT6B (Homo sapiens, UniProt Q8WYB5).
T4 construct: KAT6B (aa 657–1069, 10 nM); purchased Reaction Biology Corporation
Briefly: HotSpot KAT assay, KAT6B. The test is classed as biochemical. Particulars: for inhibition at 200 µM: read-out: % inhibition at 200 μM KAT6B (10 nM), NI = no inhibition. Here is the method: as §1

In the next test the target is T5, KAT7 (Homo sapiens, UniProt O95251).
T5 construct: full length human KAT5 (25 nM) and KAT7 (25 nM) were used; purchased Reaction Biology Corporation
The test can be described thus: HotSpot KAT assay, KAT7. Particulars: for inhibition at 200 µM: read-out: % inhibition at 200 μM KAT7 (25 nM), NI = no inhibition. The test is classed as biochemical. Here is the method:
as §1

The target of the next test is KDAC1 (Homo sapiens, UniProt Q13547). Briefly: KDAC inhibition assay, KDAC1. Format: biochemical. Particulars: mean of three technical replicates. Here is the method:
(§2) KDAC1, 2, 3 6, and 8 inhibition assays were performed as described previously.[52] Briefly, the relevant human recombinant KDAC was diluted in an assay buffer with the following composition: 150 mM NaCl, 25 mM Tris–HCl (pH 8.0), 2.7 mM KCl, and 1 mM MgCl2; BSA (0.1 mg/mL) was also added in the case of KDAC1. Forty microliters of this solution were added to 10 μL of each inhibitor ([…]) and 50 μL of KDAC Assay substrate (Boc-Lys-(Ac)-AMC, 7–100 μM final concentration, depending on the KDAC isoform), and the resulting solution was mixed. […] After thorough mixing of the resulting solution, the plate was covered and incubated at 37 °C for 25 min and the fluorescence (λemission = 460 nm; λexcitation = 390 nm) was measured on a EnSight Multimode Plate Reader (Perkin Elmer). The shown values are average of three technical replicates ± SD.

Another test addresses KDAC3 (Homo sapiens, UniProt O15379). Briefly: KDAC inhibition assay, KDAC3. Particulars: mean of three technical replicates. The test is classed as biochemical. Here is the method: as §2
Another test has as its system HT29 cells. Briefly: Cell cycle analysis by propidium iodide staining, HT29. The test is classed as cell-based, human. Particulars: 72 h. The method, then: (§3) For the analysis of the progression of cells through cell cycle phases and sub-G1 peak identification, 24 h after plating, cells were treated with the different compounds. After 72 h, both floating and adherent cells were collected and fixed with cold 70% ethanol. At least 24 h after fixation, cells were incubated with 0.025 mg/mL Propidium Iodide for 15 min at room temperature and analyzed. For Annexin V analysis, 24 h after plating, cells were treated with 50 and 100 μM of the compounds. In the case of chloroquine experiments, 10 μM chloroquine (Sigma-Aldrich, A9165) was added 30 min before compounds. 72 h after treatment, both floating and adherent cells were collected and stained with an Annexin V-FITC apoptosis detection kit (ENZO #ALX-850-020-KI). Samples were incubated 15 min in the dark at rt, and 10,000 events were then analyzed.

In a further test the test system is HeLa cells. The test can be described thus: Cell cycle analysis by propidium iodide staining, HeLa. Format: cell-based, human. Particulars: 72 h. The method, then: as §3

Molecules are shown by their SMILES.

T5 sequence (O95251 whole entry): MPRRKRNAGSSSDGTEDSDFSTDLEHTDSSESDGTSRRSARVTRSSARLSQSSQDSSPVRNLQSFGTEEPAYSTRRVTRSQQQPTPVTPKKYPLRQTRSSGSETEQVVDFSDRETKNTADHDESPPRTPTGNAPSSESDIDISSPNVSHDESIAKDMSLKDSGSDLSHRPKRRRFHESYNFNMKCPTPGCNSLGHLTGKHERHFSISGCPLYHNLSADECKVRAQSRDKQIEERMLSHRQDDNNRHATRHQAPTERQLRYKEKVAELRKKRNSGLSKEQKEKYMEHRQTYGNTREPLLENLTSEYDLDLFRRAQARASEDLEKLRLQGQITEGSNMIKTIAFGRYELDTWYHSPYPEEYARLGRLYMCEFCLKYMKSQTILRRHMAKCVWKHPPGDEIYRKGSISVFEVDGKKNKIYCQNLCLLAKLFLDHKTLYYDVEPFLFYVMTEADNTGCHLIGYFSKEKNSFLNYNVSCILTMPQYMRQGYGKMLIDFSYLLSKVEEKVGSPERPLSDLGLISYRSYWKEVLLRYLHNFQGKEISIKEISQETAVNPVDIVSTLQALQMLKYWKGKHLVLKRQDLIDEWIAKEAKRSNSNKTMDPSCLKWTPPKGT
T2 sequence (Q92831 492-658): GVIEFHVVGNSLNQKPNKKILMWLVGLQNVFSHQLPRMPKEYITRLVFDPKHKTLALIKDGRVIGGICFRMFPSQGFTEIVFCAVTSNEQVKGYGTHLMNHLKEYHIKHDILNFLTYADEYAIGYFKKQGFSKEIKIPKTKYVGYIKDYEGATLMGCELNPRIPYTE
T4 sequence (Q8WYB5 657-1069): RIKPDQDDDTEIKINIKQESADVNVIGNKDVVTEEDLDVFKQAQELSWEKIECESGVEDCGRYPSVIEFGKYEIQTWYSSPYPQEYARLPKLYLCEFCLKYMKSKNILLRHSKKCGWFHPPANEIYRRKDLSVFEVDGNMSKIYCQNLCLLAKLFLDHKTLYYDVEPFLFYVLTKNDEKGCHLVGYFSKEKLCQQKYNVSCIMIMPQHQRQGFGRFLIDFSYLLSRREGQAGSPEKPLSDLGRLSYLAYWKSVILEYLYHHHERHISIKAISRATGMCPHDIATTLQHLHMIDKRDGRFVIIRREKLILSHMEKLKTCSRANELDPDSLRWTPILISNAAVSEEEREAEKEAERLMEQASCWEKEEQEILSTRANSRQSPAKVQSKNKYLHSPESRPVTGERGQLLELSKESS
Chain of KDAC1 (Q13547 whole entry, canonical isoform): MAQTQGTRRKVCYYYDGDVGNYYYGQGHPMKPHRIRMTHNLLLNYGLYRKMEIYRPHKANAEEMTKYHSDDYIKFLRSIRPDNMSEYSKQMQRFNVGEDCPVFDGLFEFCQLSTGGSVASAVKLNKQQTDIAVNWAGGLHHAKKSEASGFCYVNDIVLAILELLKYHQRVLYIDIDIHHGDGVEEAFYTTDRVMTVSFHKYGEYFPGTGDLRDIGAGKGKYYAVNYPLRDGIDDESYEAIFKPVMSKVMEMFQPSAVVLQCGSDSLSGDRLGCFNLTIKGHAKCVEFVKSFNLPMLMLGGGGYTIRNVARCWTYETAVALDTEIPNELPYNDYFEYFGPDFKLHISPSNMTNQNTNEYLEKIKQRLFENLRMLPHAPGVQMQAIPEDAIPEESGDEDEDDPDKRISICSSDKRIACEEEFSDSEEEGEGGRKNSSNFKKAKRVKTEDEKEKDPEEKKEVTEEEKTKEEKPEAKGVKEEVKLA
T3 sequence (Q92794 488-778): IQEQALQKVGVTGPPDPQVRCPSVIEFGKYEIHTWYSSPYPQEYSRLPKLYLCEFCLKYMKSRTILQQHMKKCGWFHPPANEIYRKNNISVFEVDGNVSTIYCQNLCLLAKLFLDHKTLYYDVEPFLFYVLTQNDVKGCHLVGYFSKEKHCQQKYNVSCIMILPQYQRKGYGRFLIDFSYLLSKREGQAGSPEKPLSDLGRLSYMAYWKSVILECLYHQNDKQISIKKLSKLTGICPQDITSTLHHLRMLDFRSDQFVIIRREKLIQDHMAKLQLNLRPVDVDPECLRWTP
Chain of KDAC3 (O15379 whole entry): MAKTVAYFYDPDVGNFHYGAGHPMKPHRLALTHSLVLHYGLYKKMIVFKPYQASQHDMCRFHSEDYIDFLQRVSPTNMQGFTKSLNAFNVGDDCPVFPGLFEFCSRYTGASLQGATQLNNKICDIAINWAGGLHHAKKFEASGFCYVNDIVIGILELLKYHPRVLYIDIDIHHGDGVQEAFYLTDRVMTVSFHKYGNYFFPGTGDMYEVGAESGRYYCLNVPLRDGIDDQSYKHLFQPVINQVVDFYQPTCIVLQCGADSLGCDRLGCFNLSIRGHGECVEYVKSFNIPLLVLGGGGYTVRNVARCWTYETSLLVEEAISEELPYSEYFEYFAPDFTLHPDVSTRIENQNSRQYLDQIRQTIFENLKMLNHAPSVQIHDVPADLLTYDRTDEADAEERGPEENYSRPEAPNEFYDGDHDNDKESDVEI
Chain of KDAC3 (Q9Y618 395-489 partner limits assumed): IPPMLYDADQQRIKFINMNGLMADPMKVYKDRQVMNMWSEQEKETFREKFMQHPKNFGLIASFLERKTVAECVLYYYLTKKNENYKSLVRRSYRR

As to `CC1=NN(c2ccc(C(=O)O)cc2)C(=O)/C1=C\c1ccc[nH]1` [Compound 19, (Z)-4-(4-((1H-Pyrrol-2-yl)methylene)-3-methyl-5-oxo-4,5-dihydro-1H-pyrazol-1-yl)benzoic Acid], the IC50 was 12.1 ± 0.6 µM at KAT8 and more than 200 µM against KAT2B. Also, the “IC50 KAT2B (25 nM)” value at KAT2B is “no inhibition at 200 μM”. The inhibition at 200 µM is 0% at KAT6A, 4.8 ± 1.6% at KAT6B and 0% on KAT7. Moreover, the figures for the inhibition at 50 µM against KDAC1 and at KDAC3 were 0.03% and 0.5%, respectively. In addition, the inhibition at 100 µM at KDAC1 was found to be 0.3%; at KDAC3 it was 1.1%. Besides, the “change in the different stages of cell cycle, HT29” value in the test on HT29 cells is on record as “no significative change”. In addition, the “change in the different stages of cell cycle, HeLa” value in the test on HeLa cells is given as “no significative change”.

Take `O=C(O)c1ccc(N2N=C(c3ccccc3)/C(=C/c3ccc[nH]3)C2=O)cc1` [Compound 34, (Z)-4-(4-((1H-Pyrrol-2-yl)methylene)-5-oxo-3-phenyl-4,5-dihydro-1H-pyrazol-1-yl)benzoic Acid]: the IC50 at KAT8 was 8.1 ± 0.5 µM; at KAT2B it was more than 200 µM. Also, the inhibition at 200 µM was found to be 20.9 ± 0.4% on KAT6A, 19.6 ± 1% at KAT6B and 16.9 ± 0.7% at KAT7. Besides, the inhibition at 50 µM came to 0.04% against KDAC1 and 0.02% at KDAC3. In addition, the inhibition at 100 µM was 0.5% against KDAC1 and 0.6% on KDAC3. Moreover, the “change in the different stages of cell cycle, HT29” value with HT29 cells is listed as “no significative change”. Further, in the test with HeLa cells, the “change in the different stages of cell cycle, HeLa” value is given as “no significative change”.

With `CC1=NN(c2ccc(C(=O)O)cc2)C(=O)/C1=C\c1ccc(-c2cc(C)c(C)cc2[N+](=O)[O-])o1` [VII (C646), reference compound], the 50% inhibitory concentration (IC50) on KAT8 was more than 200 µM; against KAT2B, more than 200 µM; at KAT6A (read-out: IC50 KAT6A (10 nM), control compound) it was 15 µM; on KAT6B (read-out: IC50 KAT6B (10 nM), control compound), 5.6 µM; at KAT7 (control compound, read-out: IC50 KAT7 (25 nM)) it was 8 µM. The inhibition at 50 µM came to 0.7% against KDAC1 and 54.5% at KDAC3. Also, the inhibition at 100 µM against KDAC1 is 1.3%; at KDAC3 it was 86.2%.
